Assay results published in US4372948A, “Derivative of saccharide and physiologically active agent containing the same” (Kureha Kagaku Kogyo Kabushiki Kaisha, priority 1980, dated 1983).

How the values were obtained:
[1] = tested on: Bacillus subtilis strain M45; assay: Mutagenicity, Rec-Assay, recombination repair deficient strain; details: 10 microgram/disk
Method: (§1) Then, a solution or suspension of each of the present compounds was absorbed on a round sheet of paper (disk) of 8 mm in diameter in an amount of 0.04 ml and the disk was placed on the culture plate so as to cover the starting points of the streaks of the micro-organism's culture.

[2] = tested on: Bacillus subtilis strain H17; assay: Mutagenicity, Rec-Assay, recombination repair retaining strain; details: 10 microgram/disk
Method: as §1

cotton pellet granuloma = assay: Anti-granuloma activity (cotton pellet); assay type: in vivo, rat; details: 7 days; for I.R. against cotton pellet edema: oral, 1000 mg/kg/day; for inhibition in vivo at 1000 mg/kg/day: Rattus norvegicus, po, 192 h, read-out: I.R. against cotton pellet edema
Method in brief: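 Rats (6/group) implanted dorsally with two 30±1 mg cotton pellets; compounds given orally in distilled water at 1000 mg/kg/day once daily for 7 days. Granuloma excised on day 8 and dry weight measured; value is % inhibition of granuloma proliferation.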

ICR-JCL mice = assay: in vivo; details: 7 days observation, 10080 min
carrageenin edema = assay: Anti-Carrageenin edema activity; assay type: in vivo, rat; details: 1000 mg/kg once; for I.R. against carrageenin edema: oral, 1000 mg/kg; for inhibition in vivo at 1000 mg/kg: Rattus norvegicus, po, read-out: I.R. against carrageenin edema
Method in brief: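 Rats (10 per group) given compound orally once at 1000 mg/kg in distilled water, then 0.1 ml 1% carrageenin injected into right hind foot pad. Foot pad thickness measured at intervals; inhibition rate (%) = (1−T/C)×100 versus carrageenin-only animals.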

acetic acid writhing = assay: Analgetic activity against chemical stimulation of acetic acid (writhing); assay type: in vivo, mouse (ICR female); details: 30 min before 0.6% acetic acid; for I.R. of writhing: oral, 1000 mg/kg; for inhibition in vivo at 1000 mg/kg: Mus musculus, po, read-out: I.R. of writhing
Excerpt: Rate of inhibition (I.R.) (%)=(1-T/C)×100
T represents the average number of writhing of the group of mice administered with the present compound and injected with acetic acid, and C represents the average number of writhing of the group of mice only injected with acetic acid (control).

exudation = assay: Anti-exudation activity (air pouch, croton oil); assay type: in vivo, rat; details: 5 days; for I.R. against exudation: oral, 1000 mg/kg/day; for inhibition in vivo at 1000 mg/kg/day: Rattus norvegicus, po, 144 h, read-out: I.R. against exudation
Method in brief: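 Rats, 6 per group, given subcutaneous dorsal air pouch injected with 0.5 ml sesame oil containing 1% croton oil. Compounds dosed orally in distilled water at 1000 mg/kg/day for five days; pouch exudate volume measured on day 6 and expressed as percent inhibition of exudation.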

blood pressure = assay: Anti-hypertension activity (reduction of blood pressure); assay type: in vivo, rat (spontaneous hypertension); details: oral, 300 mg/kg
Method in brief: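 Spontaneously hypertensive rats dosed orally at 300 mg/kg in distilled water. Blood pressure measured at 3 and 6 h. Activity taken as change from the value just before dosing.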

Sarcoma-180 = assay: Anti-tumour activity against Sarcoma-180; assay type: in vivo, mouse (ICR-JCL); details: 10 times every other day, tumour weight on 25th day; for Antitumour activity, inhibiting rate (I.R.): oral, 500 mg/kg/time, 500 mg/kg; for inhibition in vivo at 500 mg/kg: Mus musculus, Sarcoma-180, po, 600 h, read-out: Antitumour activity, inhibiting rate (I.R.)
Method in brief: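 ICR-JCL mice were given 1×10^6 Sarcoma-180 cells axillary; from 24 hours, compounds in saline were dosed orally at 500 mg/kg/time, 10 times every other day. Tumour nodes were weighed on day 25; inhibition rate = (1-T/C)×100(%) versus untreated tumour-bearing mice.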

[3] = tested on: pseudo-escaping reaction to tail pressure; assay: Analgetic activity against mechanical stimulation of pressure; assay type: in vivo, mouse (ICR female); details: oral, 1000 mg/kg
total cholesterol = assay: Anti-hyperlipemia activity, total cholesterol in blood; assay type: in vivo, rabbit (Japanese white male); details: oral, 300 mg/kg once; for Reduction of cholesterol level after 3 hrs.: negative = raising
Method in brief: (§2)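 Male Japanese white rabbits fed 1% cholesterol diet for 3 months received compound once orally at 300 mg/kg in water. Ear-vein blood: cholesterol by enzymatic method, beta-lipoprotein by colorimetry; values are change from predose at 3 or 6 h.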

level of blood sugar = assay: Anti-hyperglycemia activity (reduction of blood sugar level); assay type: in vivo, rat (Wistar, streptozotocin); details: oral, 300 mg/kg
Method in brief: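 Streptozotocin-diabetic Wistar rats (60 mg/kg i.p., relapsed hyperglycemia after insulin) given compounds orally at 300 mg/kg in distilled water. Blood sugar measured in samples taken 3 and 6 h post-dose.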

beta-lipoprotein = assay: Anti-hyperlipemia activity, beta-lipoprotein in blood; assay type: in vivo, rabbit (Japanese white male); details: oral, 300 mg/kg once
Method in brief: as §2

[4] = tested on: foot pad reaction to sheep erythrocyte; assay: Delayed-type intracutaneous reaction (foot pad reaction, cellular immunity); assay type: in vivo, mouse (ICR-JCL); details: same dose (250 mg/kg/day) intraperitoneally
Method: In order to know the influence of the present compounds on the cellular immunity, a foot pad reaction test was carried out by using ICR-JCL mice as experimental animals and sheep erythrocyte as an antigen as follows:
Sheep erythrocytes were suspended in a physiological saline solution at a concentration of 10% by volume and 0.2 ml of the suspension was injected into the caudal vein of each mouse for the primary sensitization, and after 7 days, a 40% by volume suspension of the erythrocytes in physiological saline solution was injected into the foot pad of the mouse for the challenge. The thickness of the injected foot pad was measured on the next day. One of the present compounds was administered intraperitoneally at dose of 250 mg/kg/day once a day for continued 5 days around the day of the first sensitization as a center.

in vivo = details: mouse, in vivo, po, mice, 7 days observation, read-out: LD50, acute oral toxicity
[5] = tested on: pyrexia (Saccharomyces cerevisiae); assay: Anti-pyrexia activity (yeast-induced); assay type: in vivo; details: Rattus norvegicus, oral, read-out: Rate of inhibiting pyrexia (I.R.)
Method in brief: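 Rats (n=6/group) received subcutaneous 20% Saccharomyces cerevisiae suspension, fasted 10 h, then dosed orally with 1000 mg/kg compound in distilled water. Rectal temperature was tracked at set intervals and the lowest value taken; inhibition rate computed against non-yeast and yeast-only control temperatures.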

Row | SMILES | Reduced level of blood pressure after 3 hrs. (blood pressure) [mm Hg] | Reduced level of blood pressure after 6 hrs. (blood pressure) [mm Hg] | Pseudo-escapting reaction pressure [3] [mmHg] | Pseudo-escapting reaction time [3] [s] | Reduced level of blood sugar after 3 hrs. (level of blood sugar) [mg/dL] | Reduced level of blood sugar after 6 hrs. (level of blood sugar) [mg/dL] | inhibition in vivo at 1000 mg/kg/day (cotton pellet granuloma) [%] | LD50 at 168 h (in vivo) [mg/kg] | inhibition in vivo at 1000 mg/kg (carrageenin edema) [%] | inhibition in vivo at 1000 mg/kg (acetic acid writhing) [%] | inhibition in vivo at 1000 mg/kg/day (exudation) [%] | inhibition in vivo at 1000 mg/kg [5] [%] | inhibition in vivo at 500 mg/kg (Sarcoma-180) [%] | Reduction of cholesterol level after 3 hrs. (total cholesterol) [mg/dL] | Reduction of cholesterol level after 6 hrs. (total cholesterol) [mg/dL] | Reduction of beta-lipoprotein level after 3 hrs. (beta-lipoprotein) [mg/dL] | Reduction of beta-lipoprotein level after 6 hrs. (beta-lipoprotein) [mg/dL] | further results
1 | NC[C@H]1O[C@H](O[C@H]2[C@H](O)[C@@H](O[C@H]3O[C@H](CO)[C@@H](O)[C@H](N)[C@H]3O)[C@H](N)C[C@@H]2N)[C@H](O)[C@@H](O)[C@@H]1O [Kanamycin] |  |  |  |  |  |  |  |  |  |  |  |  |  |  |  |  |  | Length of growth inhibition M45 [1]: 6 mm; Difference of growth inhibition (M45, H17) ([1]; M45 minus H17): 3 mm; Length of growth inhibition H17 [2]: 3 mm
2 | C[C@@H]1OC(Nc2ccc(CC(=O)O)cc2)[C@H](O)[C@H](O)[C@H]1O (stereo partly drawn) [Compound 28, sodium p-aminophenylacetate-N-L-rhamnoside] | 25 | 19 | 87 | 38 | 92 | 77 |  |  |  |  |  |  |  |  |  |  |  | I.R. against cotton pellet edema (cotton pellet granuloma): 20.6%; LD50, acute oral toxicity (ICR-JCL mice): 11100 mg/kg; I.R. against carrageenin edema (carrageenin edema): 8.3%; I.R. of writhing (acetic acid writhing): 25%; I.R. against exudation (exudation): 6.1%; Antitumour activity, inhibiting rate (I.R.) (Sarcoma-180): 45%; Reduction of cholesterol level after 3 hrs. (total cholesterol; 300 mg/kg): 5 mg/dL; Reduction of cholesterol level after 6 hrs. (total cholesterol; 300 mg/kg): 25 mg/dL; Reduction of beta-lipoprotein level after 3 hrs. (beta-lipoprotein; 300 mg/kg): 101 mg/dL; Reduction of beta-lipoprotein level after 6 hrs. (beta-lipoprotein; 300 mg/kg): 100 mg/dL
3 | CO[C@@]12[C@H](COC(N)=O)C3=C(C(=O)C(C)=C(N)C3=O)N1C[C@@H]1N[C@@H]12 [Mitomycin C, mitomycin C] |  |  |  |  |  |  |  |  |  |  |  |  |  |  |  |  |  | mortality in foot pad reaction test [4]: died
4 | O=C(OC1CCCCC1)c1ccc(NC2O[C@H](CO)[C@@H](O[C@H]3O[C@H](CO)[C@@H](O[C@H]4O[C@H](CO)[C@@H](O)[C@H](O)[C@H]4O)[C@H](O)[C@H]3O)[C@H](O)[C@H]2O)cc1 (some centres unmarked) [Compound 20, cyclohexyl p-aminobenzoate-N-maltotrioside] | 22 | 24 | 75 | 35 | 113 | 120 | 21.7 | 12500 | 8.6 | 17 | 6.2 | 23 | 37 | -2 | 50 | 125 | 128 | 
5 | O=C(OCC1CCCCC1)c1ccc(NC2OC[C@@H](O)[C@@H](O)[C@H]2O)cc1 (stereo partly drawn) [Compound 23, hexahydrobenzyl p-aminobenzoate-N-D-riboside] | 21 | 22 | 80 | 39 | 120 | 126 | 7.3 | 12600 | 4.9 | 23 | 22.5 | 15 | 47 | -1 | 40 | 141 | 143 | 
6 | O=C(OC1CCCCC1)c1cccc(NC2O[C@H](CO)[C@@H](O)[C@H](O)[C@@H]2O)c1 (stereo partly drawn) [Compound 17, cyclohexyl m-aminobenzoate-N-D-mannoside] | 23 | 28 | 92 | 42 | 140 | 145 | 19.7 | > 15000 | 4.3 | 47 | 14.6 | 30 | 49 | -2 | 40 | 124 | 136 | 
7 | NC(=O)c1cccc(NC2O[C@H](CO)[C@@H](O[C@@H]3O[C@H](CO)[C@@H](O)[C@H](O)[C@H]3O)[C@H](O)[C@H]2O)c1 (some centres unmarked) [Compound 2, m-aminobenzoic acid amide-N-cellobioside] | 20 | 22 | 84 | 42 | 85 | 103 | 6.1 | > 15000 | 20.3 | 20 | 6.6 | 36 | 35 | 1 | 30 | 108 | 124 | 
8 | C[C@@H]1OC(Nc2ccc(CC(=O)O)cc2)[C@H](O)[C@H](O)[C@H]1O (stereo partly drawn) [Compound 29, potassium p-aminophenylacetate-N-L-rhamnoside] | 21 | 17 | 84 | 41 | 88 | 71 |  |  |  |  |  |  |  |  |  |  |  | I.R. against cotton pellet edema (cotton pellet granuloma): 15.9%; LD50, acute oral toxicity (ICR-JCL mice): 10000 mg/kg; I.R. against carrageenin edema (carrageenin edema): 9.3%; I.R. of writhing (acetic acid writhing): 26%; I.R. against exudation (exudation): 5.8%; Antitumour activity, inhibiting rate (I.R.) (Sarcoma-180): 38%; Reduction of cholesterol level after 3 hrs. (total cholesterol; 300 mg/kg): 3 mg/dL; Reduction of cholesterol level after 6 hrs. (total cholesterol; 300 mg/kg): 40 mg/dL; Reduction of beta-lipoprotein level after 3 hrs. (beta-lipoprotein; 300 mg/kg): 95 mg/dL; Reduction of beta-lipoprotein level after 6 hrs. (beta-lipoprotein; 300 mg/kg): 121 mg/dL
